The values that follow come from patent publication US20260256779A1, “PYRIDAZIN-3-CARBOXAMIDE COMPOUND AS TYK2 INHIBITOR” (Guangzhou Fermion Technology Co., Ltd., priority 2022, published 2026).

Data set [1] in a line: Pharmacokinetic evaluation by intravenous injection or oral gavage in mice. Type of data set: in vivo. The note with it: ICR mice; for AUC(0-t) / Cmax / Tmax / half-life / clearance / Vd: mouse, plasma; for Vd: read-out: Vz. The protocol: The inventors evaluated the pharmacokinetic properties of the compound of the present invention in mice.
The compound of the present invention was administered to the test animals in the form of 5% DMA+5% Solutol+90% saline or 5% ethanol+5% TPGS+90% PEG300 solvent. The animals were fasted for 12 hours before administration and had free access to water. For the intravenous administration group, the dose was 1 mg/kg. The drug was administered by intragastric administration at a dose of 10 mg/kg. After the drug administration, blood was intravenously drawn from the animals at the following time points (blood volume was approximately 0.3 mL): 0.083, 0.25, 0.5, 1.0, 2.0, 4.0, 8.0 and 24 h. EDTA-K2 was pre-added to blood collection tubes as an anticoagulant, and the blood samples were centrifuged at 6800 g for 6 min to collect plasma, which was then stored at −80° C.
Sample preparation for LC-MS/MS assay: 15 μL of plasma samples was used for protein precipitation with 300 μL of methanol containing 100 ng/mL IS (IS was tolbutamide). The mixture was vortexed for 1 min and then centrifuged at 18000 g for 10 min. 300 μL of the supernatant was transferred to a 96-well plate. 2 μL of the supernatant was subjected to LC-MS/MS analysis.

For data set [2], the system named is IL-2-induced CD3+ pSTAT5 (JAK1/3) in hPBMC. The data set can be described thus: IL-2-induced STAT5 phosphorylation (JAK1/3) in CD3+ cell subpopulations in human PBMC, flow cytometry. The data set is classed as cell-based. Conditions: CD3+ cells, IL-2 stimulation. The protocol:
Purpose: The purpose of this test example was to test the inhibitory effect of the compound on IL-2-induced STAT5 phosphorylation using protein phosphorylation flow cytometric analysis technology.
Human PBMC cells were pre-incubated with the compounds, STAT5 was induced to phosphorylate under appropriate stimulation conditions, and corresponding cell subpopulations and targets were stained. Flow cytometry was used to read cell data and analyze the strength of phosphorylated antibody signals under different compound concentrations. PBMCs were resuspended and dispensed into a 96-well plate, 62.5 μL/well. 3.5 μL of 20× compound working solutions were added and incubated at 37° C. for 30 minutes. 5 μL of PE Mouse Anti-Human CD3 (BD) was added and incubated at 37° C. in the dark for 30 minutes. 4 μL of 20× IL-2 (R&D) was added to each well and incubated at 37° C. in the dark for 20 minutes. All cells in the 96-well plate were transferred to a deep-well plate, 400 μL of a fixation working solution (Biolegend) was added to each well, and incubated at room temperature in the dark for 20 minutes. The cells were washed twice with PBS, and 400 μL of Perm Buffer III (BD) was added and incubated at 4° C. in the dark for 40 minutes. The cells were washed twice with PBS, and 100 μL of a STAT5 pY694 antibody working solution (BD) was added and incubated at room temperature for 40 minutes. After washing once with PBS, the cells were resuspended in 200 μL of a staining buffer and transferred to a sample plate. The antibody fluorescence intensity was analyzed using FlowJo software, and the IC50 of the compound was calculated using XL-Fit software.

The next data set addresses T1, TYK2 JH2 pseudokinase (Homo sapiens, UniProt P29597).
T1 construct: 5 μL of 3×TYK2 JH2 kinase (Bioduro); purchased Bioduro
The data set can be described thus: TYK2 JH2 in vitro enzyme binding assay (TR-FRET). Conditions: 60 min at room temperature. The method, then:
Purpose: The purpose of this test example was to use a fluorescence resonance energy transfer (TR-FRET) method to test the binding effect of the compound on a TYK2 JH2 pseudokinase, and then evaluate the affinity of the compound for TYK2 JH2.
DMSO-dissolved compounds were used to prepare 10 mM stock solutions, then 200× compounds having different gradient concentrations were prepared in a compound dilution plate, and transferred to an Echo plate. 75 nL of the compounds were transferred from the Echo plate to a 384-well assay plate using an Echo instrument, and 5 μL of 3×TYK2 JH2 kinase (Bioduro), 5 μL of 3× Tb antibody (Cisbio) and 5 μL of 3×TRACER (Bioduro) were added to the 384-well assay plate, centrifuged for 30 seconds, and incubated at room temperature for 60 minutes. A 495 nm/520 nm fluorescence signal ratio was read by an Envision microplate reader (PerkinElmer), and data was analyzed using XL-Fit software to calculate the IC50 of the compound.

[3] abbreviates: intragastric administration, 10 mg/kg.
The mark [4] stands for this setting: po, intragastric administration, 10 mg/kg.
Where [5] appears, read: intravenous administration, 1 mg/kg.

Some results are limits rather than exact numbers.

T1 sequence (P29597 589-875 limits assumed): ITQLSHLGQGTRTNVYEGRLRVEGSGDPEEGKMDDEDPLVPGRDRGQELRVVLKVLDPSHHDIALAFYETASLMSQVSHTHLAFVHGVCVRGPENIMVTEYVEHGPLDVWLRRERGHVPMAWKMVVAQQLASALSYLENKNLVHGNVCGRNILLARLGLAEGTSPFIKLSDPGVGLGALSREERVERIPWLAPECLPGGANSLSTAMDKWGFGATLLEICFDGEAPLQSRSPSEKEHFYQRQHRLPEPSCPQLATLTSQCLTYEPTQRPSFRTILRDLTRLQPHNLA

The AUC(0-t) is the area under the concentration-time curve up to a stated or last time point. Higher therefore signals more exposure. For orientation: Cmax means the peak of the concentration-time curve. In general, Tmax refers to the time at which the peak concentration occurs. As a reminder, the half-life is how long it takes for the measured level to halve. What is called IC50 is the concentration needed to halve the response being measured. For `[2H]C([2H])([2H])Oc1c(Nc2cc(NC(=O)C3CC3)nnc2C(=O)NOCC)cccc1-c1ncn(C2CC2)n1` [Compound 9, 6-(Cyclopropylcarboxamido)-4-((3-(1-cyclopropyl-1H-1,2,4-triazol-3-yl)-2-(methoxy-d3)phenyl)amino)-N-ethoxypyridazine-3-carboxamide], the F in data set [1] (setting [3]) is recorded as 72.48%. Besides, in data set [1] (setting [4]), the AUC(0-t) amounted to 20100 ng·h/mL, the peak level (Cmax) was 9220 ng/mL, the Tmax came out at 0.67 h and the half-life is 4.64 h. In data set [1] (setting [5]), the AUC(0-t) worked out at 2780 ng·h/mL, the concentration peaked (Cmax) at 3730 ng/mL, the Tmax worked out at 0.08 h and the clearance stood at 6.09 mL/min/kg. Moreover, in data set [1] (setting [5]), the half-life is 4.3 h and the Vd was 1.8 L/kg. The molecule further came in with an IC50 in data set [2] of over 30000 nM. The same molecule displayed a half-inhibitory concentration (IC50) at TYK2 JH2 pseudokinase of 0.22 nM.
As for `[2H]C([2H])([2H])C([2H])([2H])ONC(=O)c1nnc(NC(=O)C2CC2)cc1Nc1cccc(-c2ncn(C3CC3)n2)c1OC` [Compound 17, 6-(Cyclopropylcarboxamido)-4-((3-(1-cyclopropyl-1H-1,2,4-triazol-3-yl)-2-methoxyphenyl)amino)-N-(ethoxy-d5)pyridazine-3-carboxamide], in data set [1] (setting [3]), the F turned out to be 94.13%. In data set [1] (setting [4]), the AUC(0-t) amounted to 17500 ng·h/mL, the Cmax came to 5640 ng/mL, the time of peak concentration (Tmax) came out at 0.67 h and the half-life was 5.03 h. For the same molecule, in data set [1] (setting [5]), the area under the curve AUC(0-t) was 1860 ng·h/mL, the maximum concentration (Cmax) worked out at 3400 ng/mL, the Tmax amounted to 0.08 h and the clearance is 9.13 mL/min/kg. In data set [1] (setting [5]), the half-life is 3.61 h and the Vd stood at 2.77 L/kg. The IC50 in data set [2] is over 30000 nM. At TYK2 JH2 pseudokinase, this molecule displayed an IC50 of 0.19 nM.
Regarding `CCONC(=O)c1nnc(NC(=O)C2CC2)cc1Nc1cc(F)cc(-c2ncn(C)n2)c1OC` [Compound 4, 6-(Cyclopropylcarboxamido)-N-ethoxy-4-((5-fluoro-2-methoxy-3-(1-methyl-1H-1,2,4-triazol-3-yl)phenyl)amino)pyridazine-3-carboxamide], the IC50 at TYK2 JH2 pseudokinase is 0.2 nM.
For the molecule BMS-986165 [reference compound], half-maximal inhibition in data set [2] (IC50) was put at 409 nM.
Regarding `[2H]C([2H])([2H])ONC(=O)c1nnc(NC(=O)C2CC2)cc1Nc1cccc(-c2ncn(C)n2)c1OC` [Compound 14, 6-(Cyclopropylcarboxamido)-N-(methoxy-d3)-4-((2-methoxy-3-(1-methyl-1H-1,2,4-triazol-3-yl)phenyl)amino)pyridazine-3-carboxamide], the IC50 at TYK2 JH2 pseudokinase came to 0.27 nM.
Regarding `CCONC(=O)c1nnc(NC(=O)C2CC2)cc1Nc1cccc(-c2ncn(C3CC3)n2)c1OC` [Compound 7, 6-(Cyclopropylcarboxamido)-4-((3-(1-cyclopropyl-1H-1,2,4-triazol-3-yl)-2-methoxyphenyl)amino)-N-ethoxypyridazine-3-carboxamide], the F in data set [1] (setting [3]) was found to be 29.09%. In data set [1] (setting [4]), the AUC(0-t) was 7850 ng·h/mL, the Cmax amounted to 3460 ng/mL, the Tmax is 0.83 h and the half-life is 3.75 h. In addition, in data set [1] (setting [5]), the AUC(0-t) is 2700 ng·h/mL, the Cmax came to 3620 ng/mL, the Tmax was determined as 0.08 h and the clearance is 6.13 mL/min/kg. Further, in data set [1] (setting [5]), the half-life is 1.51 h and the Vd amounted to 0.81 L/kg. Besides, the IC50 in data set [2] is over 30000 nM. Further, on TYK2 JH2 pseudokinase, the IC50 came out at 0.17 nM.
`[2H]C([2H])([2H])n1cnc(-c2cccc(Nc3cc(NC(=O)C4CC4)nnc3C(=O)NOCC)c2OC)n1` [Compound 5, 6-(Cyclopropylcarboxamido)-N-ethoxy-4-((2-methoxy-3-(1-(methyl-d3)-1H-1,2,4-triazol-3-yl)phenyl)amino)pyridazine-3-carboxamide] yielded an IC50 at TYK2 JH2 pseudokinase of 0.26 nM.
Same read-out and setting: in the case of `[2H]C([2H])([2H])C([2H])([2H])ONC(=O)c1nnc(NC(=O)C2CC2)cc1Nc1cccc(-c2ncn(C)n2)c1OC` [Compound 15, 6-(Cyclopropylcarboxamido)-N-(ethoxy-d5)-4-((2-methoxy-3-(1-methyl-1H-1,2,4-triazol-3-yl)phenyl)amino)pyridazine-3-carboxamide] it was 0.14 nM.
Molecule `[2H]C([2H])([2H])ONC(=O)c1nnc(NC(=O)C2CC2)cc1Nc1cccc(-c2ncn(C3CC3)n2)c1OC` [Compound 16, 6-(Cyclopropanamido)-4-((3-(1-cyclopropyl-1H-1,2,4-triazol-3-yl)-2-methoxyphenyl)amino)-N-(methoxy-d3)pyridazine-3-carboxamide] came in with an IC50 on TYK2 JH2 pseudokinase of 0.29 nM.
For the molecule `CCONC(=O)c1nnc(NC(=O)C2CC2)cc1Nc1cccc(-c2ncn(C)n2)c1OC` [Compound 3, 6-(Cyclopropylcarboxamido)-N-ethoxy-4-((2-methoxy-3-(1-methyl-1H-1,2,4-triazol-3-yl)phenyl)amino)pyridazine-3-carboxamide], at TYK2 JH2 pseudokinase, the IC50 came to 0.13 nM.
On the same count and under the same terms, in the case of `CCONC(=O)c1nnc(NC(=O)C2CC2)cc1Nc1cc(F)cc(-c2ncn(C3CC3)n2)c1OC` [Compound 8, 6-(Cyclopropylcarboxamido)-4-((3-(1-cyclopropyl-1H-1,2,4-triazol-3-yl)-5-fluoro-2-methoxyphenyl)amino)-N-ethoxypyridazine-3-carboxamide] it was 0.33 nM; in that of `[2H]C([2H])([2H])n1cnc(-c2cc(F)cc(Nc3cc(NC(=O)C4CC4)nnc3C(=O)NOCC)c2OC)n1` [Compound 6, 6-(Cyclopropylcarboxamido)-N-ethoxy-4-((5-fluoro-2-methoxy-3-(1-(methyl-d3)-1H-1,2,4-triazol-3-yl)phenyl)amino)pyridazine-3-carboxamide], 0.3 nM; in that of `CONC(=O)c1nnc(NC(=O)C2CC2)cc1Nc1cccc(-c2ncn(C)n2)c1OC` [Compound 1, 6-(Cyclopropylcarboxamido)-N-methoxy-4-((2-methoxy-3-(1-methyl-1H-1,2,4-triazol-3-yl)phenyl)amino)pyridazine-3-carboxamide], 0.17 nM.
For the molecule `CONC(=O)c1nnc(Nc2cccc(C#N)n2)cc1Nc1cccc(-c2ncn(C)n2)c1OC` [Compound 2, 6-((6-cyanopyridin-2-yl)amino)-N-methoxy-4-((2-methoxy-3-(1-methyl-1H-1,2,4-triazol-3-yl)phenyl)amino)pyridazine-3-carboxamide], the IC50 on TYK2 JH2 pseudokinase is 0.16 nM.
